Laboratory results reported in PubChem BioAssay AID2060615 (Molecular Pharmacology Branch, DTP, NCI, 2025).

Test system: 496974-208-R-J2-PDC complex spheroids, growth % test/control
Experiment: Anticancer human tumor 496974-208-R-J2-PDC patient-derived pancreatic carcinoma cell line growth inhibition [CLK]
Conditions: for IC50: curve of first compound; for viability, T/C: stronger effect = lower value
Summary of the method: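 Patient-derived tumor cells grown as complex spheroids with HUVEC endothelial cells and mesenchymal stem cells, treated with drug combinations. Concentrations descend in half-log steps from near clinical Cmax, or from 10 microM if Cmax unknown.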

[1] = second compound 0.0316 µM, first compound 0.00949 µM
[2] = second compound 0.0316 µM, first compound 0.03 µM
[3] = second compound 0.0316 µM, first compound 0.0949 µM
[4] = second compound 0.0316 µM, first compound 0.3 µM
[5] = second compound 0.1 µM, first compound 0.00949 µM
[6] = second compound 0.1 µM, first compound 0.03 µM
[7] = second compound 0.1 µM, first compound 0.0949 µM
[8] = second compound 0.1 µM, first compound 0.3 µM
[9] = second compound 0.316 µM, first compound 0.00949 µM
[10] = second compound 0.316 µM, first compound 0.03 µM
[11] = second compound 0.316 µM, first compound 0.0949 µM
[12] = second compound 0.316 µM, first compound 0.3 µM
[13] = second compound 1 µM, first compound 0.00949 µM
[14] = second compound 1 µM, first compound 0.03 µM
[15] = second compound 1 µM, first compound 0.0949 µM
[16] = second compound 1 µM, first compound 0.3 µM
[17] = second compound 3.16 µM, first compound 0.00949 µM
[18] = second compound 3.16 µM, first compound 0.03 µM
[19] = second compound 3.16 µM, first compound 0.0949 µM
[20] = second compound 3.16 µM, first compound 0.3 µM
[21] = second compound 10 µM, first compound 0.00949 µM
[22] = second compound 10 µM, first compound 0.03 µM
[23] = second compound 10 µM, first compound 0.0949 µM
[24] = second compound 10 µM, first compound 0.3 µM
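Further: spheroids exposed to the drugs for 7 days before readout.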
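Wherever viability, T/C is given: 100% = DMSO vehicle control wells.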

## C=CC(=O)Nc1cc(Nc2nccc(-c3cn(C)c4ccccc34)n2)c(OC)cc1N(C)CCN(C)C + CNC(=O)c1ccc(Nc2nc(OC3CCCC3)c3c(-c4ccc5nc(C)oc5c4)c[nH]c3n2)c(OC)c1
Second compound 0.0316 µM
  IC50: > 300 nM
Second compound 0.1 µM
  IC50: > 300 nM
Second compound 0.316 µM
  IC50: > 300 nM
Second compound 1 µM
  IC50: 152 nM
Second compound 3.16 µM
  IC50: 122 nM
Second compound 10 µM
  IC50: 75.8 nM
Second compound 0.0316 µM, first compound 0.000949 µM
  viability, T/C: 108%
Second compound 0.0316 µM, first compound 0.003 µM
  viability, T/C: 99.3%
[1]
  viability, T/C: 88%
[2]
  viability, T/C: 96.5%
[3]
  viability, T/C: 90.2%
[4]
  viability, T/C: 71.7%
Second compound 0.1 µM, first compound 0.000949 µM
  viability, T/C: 80.6%
Second compound 0.1 µM, first compound 0.003 µM
  viability, T/C: 89.5%
[5]
  viability, T/C: 67.1%
[6]
  viability, T/C: 72.8%
[7]
  viability, T/C: 70%
[8]
  viability, T/C: 53.1%
Second compound 0.316 µM, first compound 0.000949 µM
  viability, T/C: 81.1%
Second compound 0.316 µM, first compound 0.003 µM
  viability, T/C: 77.4%
[9]
  viability, T/C: 85.2%
[10]
  viability, T/C: 74.5%
[11]
  viability, T/C: 60.4%
[12]
  viability, T/C: 51.2%
Second compound 1 µM, first compound 0.000949 µM
  viability, T/C: 76.7%
Second compound 1 µM, first compound 0.003 µM
  viability, T/C: 70.2%
[13]
  viability, T/C: 66%
[14]
  viability, T/C: 65.1%
[15]
  viability, T/C: 57.2%
[16]
  viability, T/C: 40.9%
Second compound 3.16 µM, first compound 0.000949 µM
  viability, T/C: 63.4%
Second compound 3.16 µM, first compound 0.003 µM
  viability, T/C: 64.1%
[17]
  viability, T/C: 65.6%
[18]
  viability, T/C: 57.8%
[19]
  viability, T/C: 51.7%
[20]
  viability, T/C: 41.1%
Second compound 10 µM, first compound 0.000949 µM
  viability, T/C: 60.3%
Second compound 10 µM, first compound 0.003 µM
  viability, T/C: 57.9%
[21]
  viability, T/C: 57.5%
[22]
  viability, T/C: 51.3%
[23]
  viability, T/C: 51.4%
[24]
  viability, T/C: 30.4%

## NC(=O)C(=Cn1cnc(-c2cc(C(F)(F)F)cc(C(F)(F)F)c2)n1)c1cncnc1 + CNC(=O)c1ccc(Nc2nc(OC3CCCC3)c3c(-c4ccc5nc(C)oc5c4)c[nH]c3n2)c(OC)c1
Second compound 0.0316 µM
  IC50: 158 nM
Second compound 0.1 µM
  IC50: 81.6 nM
Second compound 0.316 µM
  IC50: < 9.49 nM
Second compound 1 µM
  IC50: < 9.49 nM
Second compound 3.16 µM
  IC50: < 9.49 nM
Second compound 10 µM
  IC50: < 9.49 nM
[1]
  viability, T/C: 83.3%
[2]
  viability, T/C: 77.3%
[3]
  viability, T/C: 65.1%
[4]
  viability, T/C: 31.4%
Second compound 0.0316 µM, first compound 0.949 µM
  viability, T/C: 20.5%
Second compound 0.0316 µM, first compound 3 µM
  viability, T/C: 14.1%
[5]
  viability, T/C: 68.5%
[6]
  viability, T/C: 56.3%
[7]
  viability, T/C: 52%
[8]
  viability, T/C: 27.9%
Second compound 0.1 µM, first compound 0.949 µM
  viability, T/C: 20.9%
Second compound 0.1 µM, first compound 3 µM
  viability, T/C: 16.8%
[9]
  viability, T/C: 47.2%
[10]
  viability, T/C: 48.6%
[11]
  viability, T/C: 43.9%
[12]
  viability, T/C: 21.4%
Second compound 0.316 µM, first compound 0.949 µM
  viability, T/C: 18.8%
Second compound 0.316 µM, first compound 3 µM
  viability, T/C: 12.4%
[13]
  viability, T/C: 46.6%
[14]
  viability, T/C: 40.6%
[15]
  viability, T/C: 29.8%
[16]
  viability, T/C: 16.1%
Second compound 1 µM, first compound 0.949 µM
  viability, T/C: 14.3%
Second compound 1 µM, first compound 3 µM
  viability, T/C: 9.67%
[17]
  viability, T/C: 44.9%
[18]
  viability, T/C: 28.7%
[19]
  viability, T/C: 20.2%
[20]
  viability, T/C: 12.1%
Second compound 3.16 µM, first compound 0.949 µM
  viability, T/C: 10.8%
Second compound 3.16 µM, first compound 3 µM
  viability, T/C: 5.23%
[21]
  viability, T/C: 39.4%
[22]
  viability, T/C: 28.8%
[23]
  viability, T/C: 19.1%
[24]
  viability, T/C: 9.35%
Second compound 10 µM, first compound 0.949 µM
  viability, T/C: 8.25%
Second compound 10 µM, first compound 3 µM
  viability, T/C: 3.76%

## Nc1ccccc1NC(=O)c1ccc(CNC(=O)OCc2cccnc2)cc1 + CNC(=O)c1ccc(Nc2nc(OC3CCCC3)c3c(-c4ccc5nc(C)oc5c4)c[nH]c3n2)c(OC)c1
Second compound 0.0316 µM
  IC50: 4520 nM
Second compound 0.1 µM
  IC50: 4530 nM
Second compound 0.316 µM
  IC50: 4360 nM
Second compound 1 µM
  IC50: 4230 nM
Second compound 3.16 µM
  IC50: 3340 nM
Second compound 10 µM
  IC50: 3340 nM
Second compound 0.0316 µM, first compound 0.0316 µM
  viability, T/C: 92.7%
Second compound 0.0316 µM, first compound 0.1 µM
  viability, T/C: 92.8%
Second compound 0.0316 µM, first compound 0.316 µM
  viability, T/C: 89.9%
Second compound 0.0316 µM, first compound 1 µM
  viability, T/C: 78%
Second compound 0.0316 µM, first compound 3.16 µM
  viability, T/C: 75.3%
Second compound 0.0316 µM, first compound 10 µM
  viability, T/C: 0.72%
Second compound 0.1 µM, first compound 0.0316 µM
  viability, T/C: 81.8%
Second compound 0.1 µM, first compound 0.1 µM
  viability, T/C: 72.5%
Second compound 0.1 µM, first compound 0.316 µM
  viability, T/C: 66.3%
Second compound 0.1 µM, first compound 1 µM
  viability, T/C: 61.4%
Second compound 0.1 µM, first compound 3.16 µM
  viability, T/C: 73.6%
Second compound 0.1 µM, first compound 10 µM
  viability, T/C: 3.35%
Second compound 0.316 µM, first compound 0.0316 µM
  viability, T/C: 78.6%
Second compound 0.316 µM, first compound 0.1 µM
  viability, T/C: 72.9%
Second compound 0.316 µM, first compound 0.316 µM
  viability, T/C: 74.2%
Second compound 0.316 µM, first compound 1 µM
  viability, T/C: 56.1%
Second compound 0.316 µM, first compound 3.16 µM
  viability, T/C: 69.2%
Second compound 0.316 µM, first compound 10 µM
  viability, T/C: 1.48%
Second compound 1 µM, first compound 0.0316 µM
  viability, T/C: 69.1%
Second compound 1 µM, first compound 0.1 µM
  viability, T/C: 65.1%
Second compound 1 µM, first compound 0.316 µM
  viability, T/C: 67.8%
Second compound 1 µM, first compound 1 µM
  viability, T/C: 58.5%
Second compound 1 µM, first compound 3.16 µM
  viability, T/C: 68.6%
Second compound 1 µM, first compound 10 µM
  viability, T/C: 3%
Second compound 3.16 µM, first compound 0.0316 µM
  viability, T/C: 63.5%
Second compound 3.16 µM, first compound 0.1 µM
  viability, T/C: 59.2%
Second compound 3.16 µM, first compound 0.316 µM
  viability, T/C: 55%
Second compound 3.16 µM, first compound 1 µM
  viability, T/C: 49.7%
Second compound 3.16 µM, first compound 3.16 µM
  viability, T/C: 53.5%
Second compound 3.16 µM, first compound 10 µM
  viability, T/C: 4.03%
Second compound 10 µM, first compound 0.0316 µM
  viability, T/C: 60.2%
Second compound 10 µM, first compound 0.1 µM
  viability, T/C: 53.4%
Second compound 10 µM, first compound 0.316 µM
  viability, T/C: 52.1%
Second compound 10 µM, first compound 1 µM
  viability, T/C: 42.9%
Second compound 10 µM, first compound 3.16 µM
  viability, T/C: 53.2%
Second compound 10 µM, first compound 10 µM
  viability, T/C: 4.38%
